In ChEMBL document CHEMBL1201862, “PubChem BioAssay data set” (2004):
One block for each compound: values may come before it. Calls of active or inactive are those of the source.

Key:
Bcl-2-like protein 10 = Bcl-2-like protein 10 (Homo sapiens, UniProt Q9HD36); test: displacers of TR3 peptide from Bcl-B, primary screen, selectivity assay for Bfl-1 inhibitor project, biochemical, fluorescence polarization, FITC-TR3 peptide (AID 748);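 also: fluorescence polarization from a fluorescein-labelled TR3 peptide binding purified Bcl-B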
HEK293 [1] = test: cells; format: functional, cell-based; conditions: Homo sapiens
[2] = target: T1, Nucleotide-binding oligomerization domain-containing protein 1 (Homo sapiens, UniProt Q9Y239); test: NOD1 signaling inhibitors, SAR follow-up, revised (AID 2333); format: functional
T1 sequence (Q9Y239 whole entry): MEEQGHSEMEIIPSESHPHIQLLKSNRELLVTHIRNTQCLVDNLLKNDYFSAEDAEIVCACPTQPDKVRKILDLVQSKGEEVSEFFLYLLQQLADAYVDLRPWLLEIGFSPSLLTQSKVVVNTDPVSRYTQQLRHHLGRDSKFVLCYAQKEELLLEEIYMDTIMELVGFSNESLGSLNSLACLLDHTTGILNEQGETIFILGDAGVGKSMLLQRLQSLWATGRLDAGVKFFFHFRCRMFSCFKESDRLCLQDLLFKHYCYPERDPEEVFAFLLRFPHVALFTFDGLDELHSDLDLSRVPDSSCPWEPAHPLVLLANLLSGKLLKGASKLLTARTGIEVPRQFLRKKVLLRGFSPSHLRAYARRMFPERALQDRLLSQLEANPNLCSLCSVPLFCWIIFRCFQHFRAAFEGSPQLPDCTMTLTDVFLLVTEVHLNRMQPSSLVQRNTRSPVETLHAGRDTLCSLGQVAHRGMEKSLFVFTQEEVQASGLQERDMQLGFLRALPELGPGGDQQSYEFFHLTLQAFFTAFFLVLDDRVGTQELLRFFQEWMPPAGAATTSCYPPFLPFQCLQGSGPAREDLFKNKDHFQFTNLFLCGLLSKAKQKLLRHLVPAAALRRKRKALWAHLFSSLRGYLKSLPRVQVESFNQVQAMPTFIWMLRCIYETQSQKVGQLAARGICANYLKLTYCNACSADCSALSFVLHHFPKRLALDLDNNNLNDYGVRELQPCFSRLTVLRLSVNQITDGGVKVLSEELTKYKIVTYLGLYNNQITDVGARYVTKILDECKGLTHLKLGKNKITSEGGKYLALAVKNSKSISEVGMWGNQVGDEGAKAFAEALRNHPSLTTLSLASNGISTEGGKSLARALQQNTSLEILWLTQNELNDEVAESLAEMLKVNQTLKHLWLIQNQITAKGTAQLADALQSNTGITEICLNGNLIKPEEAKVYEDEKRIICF

[3] = target: T2, Nucleotide-binding oligomerization domain-containing protein 2 (Homo sapiens, UniProt Q9HC29); test: PubChem AID 2334; format: functional
Tumor necrosis factor = Tumor necrosis factor (Homo sapiens, UniProt P01375); test: TNFa-triggered NF-kB activation inhibitors, SAR follow-up, cell-based, revised (AID 2337); format: functional
HEK293 [4] = test: cells; format: functional, cell-based; conditions: Homo sapiens; remark: listed apart in the source
[5] = target: T3, Small ubiquitin-related modifier 1 (Homo sapiens, UniProt P63165); test: inhibitors of SUMO1 peptide binding, dose response, biochemical, fluorescence polarization, uHTS hits (AID 624382); format: functional; conditions: read-out: IC50_Mean
HEK293 [6] = test: cells; conditions: Homo sapiens
HEK293 [7] = test: NOD2 signaling inhibitors in MDP-stimulated cells, cell-based, uHTS, luminescence (AID 2001); format: functional; conditions: Homo sapiens
[8] = target: T3, Small ubiquitin-related modifier 1; test: inhibitors of SUMO1 partner interactions, dose response, biochemical, FRET (AID 624383); format: functional; conditions: read-out: IC50_Mean
HEK293 [9] = test: cells; format: functional, cell-based; conditions: Homo sapiens; remark: listed apart in the source
HEK293 [10] = test: NOD1 signaling inhibitors, primary screen, cell-based, luminescence, uHTS (AID 1578); format: functional; conditions: Homo sapiens
[11] = target: T2, Nucleotide-binding oligomerization domain-containing protein 2; test: NOD2 signaling inhibitors, cell-based, luminescence, uHTS, HEK293 (AID 1566); format: functional
[12] = target: Peroxisome proliferator-activated receptor gamma/Nuclear receptor coactivator 2 (Homo sapiens, UniProt P37231); test: (§1) TR-FRET dose response biochemical High Throughput Screening assay for agonists of the steroid receptor coactivator 2 (SRC-2) recruitment by the peroxisome proliferator-activated receptor gamma (PPAR gamma): non-selective agonists. [Related pubchem assays: 1297, 1032 ]; format: functional
[13] = cytotoxicity in HEK-293T cells, dose response, cytotoxicity control for BCR NF-kB inhibitor project, luminescence, B-cell screen hits (AID 489021); format: functional, cell-based;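 also: HEK-293T cells carrying an NF-kB luciferase reporter; cells exposed to compound for about 14 hours before viability readout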
[14] = target: Peroxisome proliferator-activated receptor gamma/Nuclear receptor coactivator 3 (Homo sapiens, UniProt P37231); test: as §1, with “3 (SRC-3)” for “2 (SRC-2)”, “1301 (Confirmation screen.), 1048 (Primary screen.)]” for “1297, 1032 ]”; format: functional
[15] = target: Peroxisome proliferator-activated receptor gamma/Nuclear receptor coactivator 1 (Homo sapiens, UniProt P37231); test: as §1, with “1 (SRC-1)” for “2 (SRC-2)”, “assays (depositor defined):AID1300, AID1808, AID504735, AID631]” for “assays: 1297, 1032 ]”; format: protein assay
HEK293 [16] = test: inhibitors of LMP1-driven NF-kB reporter, dose response, cell-based, HEK293, luciferase, cherry-pick (AID 588343); format: functional; conditions: Homo sapiens
X-box-binding protein 1 = X-box-binding protein 1 (Homo sapiens, UniProt P17861); format: functional, Cricetulus griseus;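 also: confirmatory dose-response counter-screen serving a CHOP assay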
Sequence of X-box-binding protein 1 (P17861 whole entry): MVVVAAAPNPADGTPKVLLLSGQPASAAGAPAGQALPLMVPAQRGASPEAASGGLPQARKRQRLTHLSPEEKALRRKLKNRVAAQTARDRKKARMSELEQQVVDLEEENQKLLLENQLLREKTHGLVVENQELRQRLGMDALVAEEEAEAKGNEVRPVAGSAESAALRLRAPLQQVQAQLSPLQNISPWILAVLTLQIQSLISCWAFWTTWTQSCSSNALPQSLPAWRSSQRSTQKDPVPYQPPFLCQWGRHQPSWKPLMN

T3 sequence (P63165 whole entry): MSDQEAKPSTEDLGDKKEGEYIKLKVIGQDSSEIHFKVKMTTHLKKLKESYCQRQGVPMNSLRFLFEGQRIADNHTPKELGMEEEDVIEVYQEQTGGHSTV
T2 sequence (Q9HC29 whole entry, the tested form may be a part): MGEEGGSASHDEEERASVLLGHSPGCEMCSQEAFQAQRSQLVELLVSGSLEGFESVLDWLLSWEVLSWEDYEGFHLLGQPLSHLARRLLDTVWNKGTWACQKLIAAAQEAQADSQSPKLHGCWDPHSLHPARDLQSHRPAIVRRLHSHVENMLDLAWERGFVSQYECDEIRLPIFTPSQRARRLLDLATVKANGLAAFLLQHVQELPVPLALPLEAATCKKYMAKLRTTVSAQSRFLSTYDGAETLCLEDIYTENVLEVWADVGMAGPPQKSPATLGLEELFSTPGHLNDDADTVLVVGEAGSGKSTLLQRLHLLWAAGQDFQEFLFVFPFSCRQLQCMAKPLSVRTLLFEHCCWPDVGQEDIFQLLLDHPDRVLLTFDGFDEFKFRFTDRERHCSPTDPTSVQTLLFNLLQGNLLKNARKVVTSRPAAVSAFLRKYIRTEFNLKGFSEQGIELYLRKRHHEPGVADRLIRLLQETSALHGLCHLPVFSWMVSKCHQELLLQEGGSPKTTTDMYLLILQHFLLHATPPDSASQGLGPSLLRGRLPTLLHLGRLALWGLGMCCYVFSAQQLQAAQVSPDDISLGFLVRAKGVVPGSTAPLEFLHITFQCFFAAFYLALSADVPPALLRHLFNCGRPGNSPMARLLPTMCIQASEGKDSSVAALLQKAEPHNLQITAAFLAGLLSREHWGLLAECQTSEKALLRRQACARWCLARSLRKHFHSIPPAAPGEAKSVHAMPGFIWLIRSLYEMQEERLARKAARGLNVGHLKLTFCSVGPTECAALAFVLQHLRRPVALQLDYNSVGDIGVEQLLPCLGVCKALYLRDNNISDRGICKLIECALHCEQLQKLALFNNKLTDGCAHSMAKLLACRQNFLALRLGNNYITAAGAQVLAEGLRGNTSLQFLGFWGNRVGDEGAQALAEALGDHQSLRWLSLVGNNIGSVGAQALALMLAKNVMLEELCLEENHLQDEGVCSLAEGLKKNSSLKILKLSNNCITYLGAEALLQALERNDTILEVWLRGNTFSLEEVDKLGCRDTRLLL
Sequence of Peroxisome proliferator-activated receptor gamma/Nuclear receptor coactivator 3 (P37231 whole entry): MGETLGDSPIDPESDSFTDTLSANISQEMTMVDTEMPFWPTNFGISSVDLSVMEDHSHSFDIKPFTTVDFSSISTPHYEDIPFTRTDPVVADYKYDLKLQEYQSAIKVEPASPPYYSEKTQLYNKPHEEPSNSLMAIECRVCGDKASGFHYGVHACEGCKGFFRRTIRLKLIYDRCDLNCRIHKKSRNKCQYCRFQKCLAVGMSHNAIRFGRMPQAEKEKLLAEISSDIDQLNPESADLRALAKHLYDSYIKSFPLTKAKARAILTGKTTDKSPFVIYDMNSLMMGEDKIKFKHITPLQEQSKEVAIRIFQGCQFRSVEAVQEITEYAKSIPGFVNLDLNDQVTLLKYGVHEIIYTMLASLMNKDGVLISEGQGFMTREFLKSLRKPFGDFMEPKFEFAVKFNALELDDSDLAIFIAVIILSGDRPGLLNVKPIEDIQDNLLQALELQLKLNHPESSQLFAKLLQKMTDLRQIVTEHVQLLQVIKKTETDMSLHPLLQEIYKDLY
Sequence of Peroxisome proliferator-activated receptor gamma/Nuclear receptor coactivator 3 (Q9Y6Q9 whole entry, further chain): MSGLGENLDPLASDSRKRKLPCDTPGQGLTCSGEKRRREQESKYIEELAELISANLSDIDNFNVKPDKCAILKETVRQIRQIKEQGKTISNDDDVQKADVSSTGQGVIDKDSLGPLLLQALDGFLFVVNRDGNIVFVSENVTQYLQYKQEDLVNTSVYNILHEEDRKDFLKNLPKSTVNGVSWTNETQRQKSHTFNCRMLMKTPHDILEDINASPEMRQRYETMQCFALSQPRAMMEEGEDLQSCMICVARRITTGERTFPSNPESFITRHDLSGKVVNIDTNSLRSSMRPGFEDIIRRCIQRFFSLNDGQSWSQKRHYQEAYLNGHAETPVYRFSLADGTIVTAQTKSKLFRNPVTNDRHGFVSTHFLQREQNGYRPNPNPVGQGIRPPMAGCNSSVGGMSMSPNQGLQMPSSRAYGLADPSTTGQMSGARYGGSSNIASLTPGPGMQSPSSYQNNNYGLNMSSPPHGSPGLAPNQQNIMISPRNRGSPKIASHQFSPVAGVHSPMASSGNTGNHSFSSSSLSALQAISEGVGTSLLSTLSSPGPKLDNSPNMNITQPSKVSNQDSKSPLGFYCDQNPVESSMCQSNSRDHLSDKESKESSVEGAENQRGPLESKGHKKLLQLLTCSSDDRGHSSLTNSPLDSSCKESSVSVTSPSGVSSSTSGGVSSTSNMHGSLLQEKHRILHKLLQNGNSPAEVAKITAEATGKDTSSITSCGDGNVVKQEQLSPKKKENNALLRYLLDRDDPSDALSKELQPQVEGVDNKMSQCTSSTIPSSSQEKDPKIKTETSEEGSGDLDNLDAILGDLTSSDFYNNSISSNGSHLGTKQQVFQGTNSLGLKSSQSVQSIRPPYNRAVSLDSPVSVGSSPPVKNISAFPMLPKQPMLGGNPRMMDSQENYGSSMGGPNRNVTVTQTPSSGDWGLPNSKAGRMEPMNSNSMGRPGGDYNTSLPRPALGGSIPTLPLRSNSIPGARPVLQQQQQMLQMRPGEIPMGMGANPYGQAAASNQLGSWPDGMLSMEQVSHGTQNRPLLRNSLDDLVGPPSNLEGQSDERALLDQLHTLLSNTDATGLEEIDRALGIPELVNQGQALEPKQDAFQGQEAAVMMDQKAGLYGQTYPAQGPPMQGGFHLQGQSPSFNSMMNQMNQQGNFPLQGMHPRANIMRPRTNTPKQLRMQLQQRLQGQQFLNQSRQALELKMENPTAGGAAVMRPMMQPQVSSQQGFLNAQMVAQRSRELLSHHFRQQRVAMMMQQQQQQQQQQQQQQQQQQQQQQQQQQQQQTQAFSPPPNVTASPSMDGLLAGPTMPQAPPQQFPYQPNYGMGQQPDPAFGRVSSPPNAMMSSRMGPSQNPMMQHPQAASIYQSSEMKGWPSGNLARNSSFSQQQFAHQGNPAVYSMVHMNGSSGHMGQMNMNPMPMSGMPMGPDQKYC
Sequence of Tumor necrosis factor (P01375 whole entry): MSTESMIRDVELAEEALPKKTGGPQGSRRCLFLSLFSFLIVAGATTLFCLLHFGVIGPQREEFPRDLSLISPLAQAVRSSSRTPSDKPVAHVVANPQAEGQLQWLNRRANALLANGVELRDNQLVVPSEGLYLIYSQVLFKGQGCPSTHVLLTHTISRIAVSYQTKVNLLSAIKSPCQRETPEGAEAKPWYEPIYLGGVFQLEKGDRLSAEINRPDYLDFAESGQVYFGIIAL
Sequence of Bcl-2-like protein 10 (Q9HD36 whole entry): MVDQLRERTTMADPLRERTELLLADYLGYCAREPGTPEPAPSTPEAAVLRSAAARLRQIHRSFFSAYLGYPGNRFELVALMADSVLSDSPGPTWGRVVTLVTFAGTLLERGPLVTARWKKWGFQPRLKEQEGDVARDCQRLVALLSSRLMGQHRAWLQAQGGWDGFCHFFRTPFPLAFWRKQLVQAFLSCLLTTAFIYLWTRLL

IC50 (Bcl-2-like protein 10): > 100 µM (inactive)
SMILES: O=C1c2ccccc2C(=O)N1CC#CCN1CCN(C2CCCCC2)CC1

SMILES: Cc1oc2c(C)c3oc(=O)c(CCC(=O)O)c(C)c3cc2c1-c1ccccc1
IC50 (HEK293 [1]): > 20 µM (inactive) | IC50 [2]: 5.43 µM (active) | IC50 [3]: 5.03 µM (active) | IC50 (Tumor necrosis factor): 5.03 µM (active) | IC50 (HEK293 [4]): > 20 µM (inactive) | IC50 [5]: > 66.6 µM (inactive) | IC50 (HEK293 [6]): > 20 µM (inactive) | IC50 (HEK293 [7]): 14.8 µM (inactive) | IC50 [8]: 13.4 µM (active) | IC50 (HEK293 [9]): > 20 µM (inactive) | EC50 (HEK293 [10]): 7.66 µM (active) | EC50 [11]: 3.67 µM (active)

SMILES: O=C(Cc1cccc2ccccc12)Nc1ccc(-c2cc3ccccc3oc2=O)cc1
EC50 [12]: 22 µM (not active) | IC50 [13]: > 80 µM (inactive) | EC50 [14]: > 79.4 µM (not active) | EC50 [15]: 22.7 µM (inactive) | AC50 (HEK293 [16]): 0.587 µM (active)

Absolute IC50 (XBP1) (X-box-binding protein 1): 10 µM
SMILES: CCOc1ccc(-c2[nH]nc(C)c2Oc2ccc(OC)cc2)c(O)c1
